# Test results published in patent US5780605A, “6,9-bridged erythromycin derivatives” (Abbott Laboratories, priority 1997, dated 1998).
# Columns and labels:
# Assay in all cases: in vitro antibacterial activity (MIC), BHI agar dilution
# Format in all cases: cell-based
# [1] = tested on: Staphylococcus aureus A5177; conditions: S. aureus A5177, 35-37° C., 20 to 24 hours
# Method: (§1) Representative compounds of the present invention were assayed in vitro for antibacterial activity as follows: Twelve petri dishes containing successive aqueous dilutions of the test compound mixed with 10 mL of sterilized Brain Heart Infusion (BHI) agar (Difco 0418-01-5) were prepared. Each plate was inoculated with 1:100 (or 1:10 for slow-growing strains, such as Micrococcus and Streptococcus) dilutions of up to 32 different microorganisms, using a Steers replicator block. […] In addition, a control plate, using BHI agar containing no test compound, was prepared and incubated at the beginning and end of each test.
# (§2) An additional plate containing a compound having known susceptibility patterns for the organisms being tested and belonging to the same antibiotic class as the test compound was also prepared and incubated as a further control, as well as to provide test-to-test comparability.
# (§3) After incubation, each plate was visually inspected. The minimum inhibitory concentration (MIC) was defined as the lowest concentration of drug yielding no growth, a slight haze, or sparsely isolated colonies on the inoculum spot as compared to the growth control.
# [2] = tested on: Staphylococcus aureus 1775; conditions: S. aureus 1775, 35-37° C., 20 to 24 hours
# Method: as §1, §2, §3
# [3] = tested on: Streptococcus Pheumoniae 5649; conditions: 35-37° C., 20 to 24 hours
# Method: as §1, §2, §3
# [4] = tested on: Enterococcus faecium ATCC 8043; conditions: E. faecium ATCC 8043, 35-37° C., 20 to 24 hours
# Method: as §1, §2, §3
# Escherichia coli DC-2 = conditions: E. coli DC-2, 35-37° C., 20 to 24 hours
# Method: as §1, §2, §3
# [5] = tested on: Streptococcus Pheumoniae GYR 1171; conditions: 35-37° C., 20 to 24 hours
# Method: as §1, §2, §3
# [6] = tested on: Mycobacterium smegmafis ATCC 114; conditions: 35-37° C., 20 to 24 hours
# Method: as §1, §2, §3
# [7] = tested on: Staphylococcus aureus ATCC 6538P; conditions: S. aureus ATCC 6538P, 35-37° C., 20 to 24 hours
# Method: as §1, §2, §3
# [8] = tested on: Streptococcus agalactiae CMX 508; conditions: S. agalactiae CMX 508, 35-37° C., 20 to 24 hours
# Method: as §1, §2, §3
# Candida albicans CCH 442 = conditions: C. albicans CCH 442, 35-37° C., 20 to 24 hours
# Method: as §1, §2, §3
# [9] = tested on: Staphylococcus aureus CMX 553; conditions: S. aureus CMX 553, 35-37° C., 20 to 24 hours
# Method: as §1, §2, §3
# [10] = tested on: Micrococcus luteus ATCC 4698; conditions: M. luteus ATCC 4698, 35-37° C., 20 to 24 hours
# Method: as §1, §2, §3
# Escherichia coli JUHL = conditions: E. coli JUHL, 35-37° C., 20 to 24 hours
# Method: as §1, §2, §3
# [11] = tested on: Staphylococcus aureus CMX 642A; conditions: S. aureus CMX 642A, 35-37° C., 20 to 24 hours
# Method: as §1, §2, §3
# [12] = tested on: Staphylococcus aureus A-5278; conditions: S. aureus A-5278, 35-37° C., 20 to 24 hours
# Method: as §1, §2, §3
# [13] = tested on: Streptococcus Pheumoniae ATCC6303; conditions: 35-37° C., 20 to 24 hours
# Method: as §1, §2, §3
# [14] = tested on: Streptococcus pyogenes EES61; conditions: S. pyogenes EES61, 35-37° C., 20 to 24 hours
# Method: as §1, §2, §3
# [15] = tested on: Staphylococcus epidermidis 3519; conditions: S. epidermidis 3519, 35-37° C., 20 to 24 hours
# Method: as §1, §2, §3
# [16] = tested on: Streptococcus bovis A-5169; conditions: S. bovis A-5169, 35-37° C., 20 to 24 hours
# Method: as §1, §2, §3
# [17] = tested on: Staphylococcus aureus NCTC10649M; conditions: S. aureus NCTC10649M, 35-37° C., 20 to 24 hours
# Method: as §1, §2, §3
# [18] = tested on: Haemophilis Influenzae DILL AMP R; conditions: 35-37° C., 20 to 24 hours
# Method: as §1, §2, §3
# [19] = tested on: Streptococcus pyogenes PIU 2548; conditions: S. pyogenes PIU 2548, 35-37° C., 20 to 24 hours
# Method: as §1, §2, §3
# [20] = tested on: Micrococcus luteus ATCC 9341; conditions: M. luteus ATCC 9341, 35-37° C., 20 to 24 hours
# Method: as §1, §2, §3
# [21] = tested on: Streptococcus pyogenes 930; conditions: S. pyogenes 930, 35-37° C., 20 to 24 hours
# Method: as §1, §2, §3
# Escherichia coli SS = conditions: E. coli SS, 35-37° C., 20 to 24 hours
# Method: as §1, §2, §3
# [22] = tested on: Nocardia Asteroides ATCC9970; conditions: 35-37° C., 20 to 24 hours
# Method: as §1, §2, §3
# [23] = tested on: Streptococcus Pheumoniae 5979; conditions: 35-37° C., 20 to 24 hours
# Method: as §1, §2, §3
SMILES,MIC (minimum inhibitory concentration) [1],MIC (minimum inhibitory concentration) [2],MIC (minimum inhibitory concentration) [3],MIC (minimum inhibitory concentration) [4],MIC (minimum inhibitory concentration) (Escherichia coli DC-2),MIC (minimum inhibitory concentration) [5],MIC (minimum inhibitory concentration) [6],MIC (minimum inhibitory concentration) [7],MIC (minimum inhibitory concentration) [8],MIC (minimum inhibitory concentration) (Candida albicans CCH 442),MIC (minimum inhibitory concentration) [9],MIC (minimum inhibitory concentration) [10],MIC (minimum inhibitory concentration) (Escherichia coli JUHL),MIC (minimum inhibitory concentration) [11],MIC (minimum inhibitory concentration) [12],MIC (minimum inhibitory concentration) [13],MIC (minimum inhibitory concentration) [14],MIC (minimum inhibitory concentration) [15],MIC (minimum inhibitory concentration) [16],MIC (minimum inhibitory concentration) [18],also measured
"CC[C@H]1OC(=O)[C@H](C)[C@@H](O[C@H]2C[C@@](C)(OC)[C@@H](O)[C@H](C)O2)[C@H](C)[C@@H](O[C@@H]2O[C@H](C)C[C@H](N(C)C)[C@H]2O)[C@](C)(O)C[C@@H](C)C(=O)[C@H](C)[C@@H](O)[C@]1(C)O [Ery. A, Erythromycin A, reference compound]",3.1,> 100,16,0.05,> 100,0.06,3.1,0.2,0.05,> 100,0.39,0.2,> 100,0.39,> 100,0.06,0.05,0.39,0.02,4,MIC (minimum inhibitory concentration) [17]: 0.39; MIC (minimum inhibitory concentration) [19]: 6.2; MIC (minimum inhibitory concentration) [20]: 0.05; MIC (minimum inhibitory concentration) [21]: > 100
CC[C@H]1OC(=O)[C@H](C)[C@@H](O[C@H]2C[C@@](C)(OC)[C@@H](O)[C@H](C)O2)[C@H](C)[C@@H](O[C@@H]2O[C@H](C)C[C@H](N(C)C)[C@H]2O)[C@@]2(C)C[C@@H](C)C(=NOCO2)[C@H](C)[C@@H](O)[C@]1(C)O [Example 1],> 100,> 100,4,1.56,> 100,0.5,1.56,6.2,0.39,> 100,6.2,1.56,> 100,12.5,> 100,1,0.39,6.2,0.39,32,MIC (minimum inhibitory concentration) (Escherichia coli SS): 1.56; MIC (minimum inhibitory concentration) [22]: 0.39; MIC (minimum inhibitory concentration) [17]: 6.2; MIC (minimum inhibitory concentration) [19]: 6.2; MIC (minimum inhibitory concentration) [20]: 0.2; MIC (minimum inhibitory concentration) [23]: > 64; MIC (minimum inhibitory concentration) [21]: > 100
CC[C@H]1OC(=O)[C@H](C)[C@@H](O[C@H]2C[C@@](C)(OC)[C@@H](O)[C@H](C)O2)[C@H](C)[C@@H](O[C@@H]2O[C@H](C)C[C@H](N(C)C)[C@H]2O)[C@@]2(C)C[C@@H](C)C(=NOCO2)[C@H](C)[C@H]2OC(=O)O[C@@]21C [Example 2],3.1,> 100,4,0.1,25,0.03,3.1,0.39,0.05,> 100,0.78,0.39,50,0.39,> 100,0.06,<= 0.005,0.39,0.02,2,MIC (minimum inhibitory concentration) (Escherichia coli SS): 0.78; MIC (minimum inhibitory concentration) [22]: 0.1; MIC (minimum inhibitory concentration) [19]: 3.1; MIC (minimum inhibitory concentration) [20]: 0.1; MIC (minimum inhibitory concentration) [23]: > 128; MIC (minimum inhibitory concentration) [21]: > 100
CC[C@H]1OC(=O)[C@H](C)C(=O)[C@H](C)[C@@H](O[C@@H]2O[C@H](C)C[C@H](N(C)C)[C@H]2O)[C@@]2(C)C[C@@H](C)C(=NOCO2)[C@H](C)[C@H]2OC(=O)O[C@@]21C [Example 3],3.1,> 100,0.5,0.78,> 100,0.25,25,3.1,0.78,> 100,3.1,0.78,> 100,3.1,> 100,1,0.39,3.1,0.2,16,MIC (minimum inhibitory concentration) (Escherichia coli SS): 0.78; MIC (minimum inhibitory concentration) [22]: 0.78; MIC (minimum inhibitory concentration) [17]: 3.1; MIC (minimum inhibitory concentration) [19]: 0.78; MIC (minimum inhibitory concentration) [20]: 0.39; MIC (minimum inhibitory concentration) [23]: > 128; MIC (minimum inhibitory concentration) [21]: > 100
